≈ marks a conversion by molar mass, not a printed value. Like-named read-outs stand apart in the source and are kept apart here.
Columns and labels:
in vitro [1] = assay: in vitro
Description: (§1) Different concentrations of the compounds ranging from 0.003 to 0.2 mg/mL were tested for cytotoxicity against three cell lines; Vero monkey kidney, C3A and Caco2. Vero cells were grown and maintained in MEM, supplemented with 0.1% gentamicin and 5% foetal calf serum, while Caco2 and C3A cells were grown and maintained in DMEM supplemented with 10% foetal calf serum, 1% non-essential amino acids and 1% penicillin-streptomycin. All cells were incubated in a 5% CO2 incubator at 37 °C. Doxorubicin chloride was used as positive control while 10% DMSO used in dissolving the test samples was used as the negative control. The 3-(4,5-dimethylthiazol)-2,5-diphenyl tetrazolium bromide (MTT) assay described by Mosmann with modification by McGaw et al. was used to determine the cytotoxicity of the test samples. The lethal concentration (LC50) value was calculated as the concentration of tested sample resulting in a 50% reduction of absorbance compared to untreated cells. Selectivity index (SI) values were calculated against the MIC using the formula: […]

[2] = system: C. neoformans and A. fumigatus; assay: Mean MIC over the fungal isolates; format: cell-based; conditions: all time points of Table 3
From the text: (§2) The cultures used were Escherichia coli (American Type Culture Collection, ATCC 25922) labelled as 1, E. coli isolates (B1989/17 and B1962/17) labelled as 2 and 3 from equine urine, collected from the Department of Veterinary Tropical Diseases, Faculty of Veterinary Science, University of Pretoria, South Africa, Klebsiella pneumoniae isolate from commercial chicken eggs, Enterococcus faecalis (ATCC 29212), Pseudomonas aeruginosa (ATCC 27853), Staphylococcus aureus (ATCC 29213), Candida albicans from a Gouldian finch, Aspergillus fumigatus from a chicken and Cryptococcus neoformans from a cheetah. These microbial strains were maintained on MHA or SDA for bacteria and fungi respectively, while the isolates were maintained on blood agar.
(§3) Ten mg/mL of each fraction and 1 mg/mL of isolated compounds were prepared in 10% DMSO and tested against S. aureus, E. coli, K. pneumoniae, E. faecalis, P. aeruginosa, C. albicans, C. neoformans and A. fumigatus. Cultures were prepared by inoculating each microbial strain from prepared agar plates into sterilized MHB for bacterial and SDB for fungi in sterile McCartney bottles respectively. The inoculums were placed in an orbital shaker incubator. Bacterial strains were incubated at 37 °C for 18 h. Each bacterial culture was diluted in fresh MHB and the absorbance was measured at a wavelength of 560 nm using a microplate reader (Epoch Biotek). The readings were compared to a McFarland standard No. 1 correlating to approximately 3 × 10^8 cfu/mL). For fungi strains, cultures were incubated at 30 °C for 24 h (C. albicans), 72 h (C. neoformans) and 120 h (A. fumigatus) respectively. The resultant cells and spores were washed with sterile normal saline and absorbance was measured at a wavelength of 560 nm and turbidity was adjusted to a McFarland standard 1.This was further diluted in a 1:10 ratio in SDB to a turbidity of 5 × 10^5 cfu/mL. These diluted cultures (bacterial and fungi) were used for the screening following the serial microdilution method of Eloff.

[3] = system: Klebsiella pneumoniae isolate from commercial chicken eggs; assay: MIC, serial microdilution with INT; format: cell-based; conditions: Klebsiella pneumoniae, K. pneumoniae; read-out: Minimum inhibitory concentration
From the text: as §2, §3

[4] = system: Cryptococcus neoformans from a cheetah; assay: MIC, serial microdilution with INT; format: cell-based; conditions: C. neoformans, read-out: Minimum inhibitory concentration
From the text: as §2, §3

[5] = system: E. coli (B1989/17) isolate from equine urine, E. coli (2); assay: MIC, serial microdilution with INT; format: cell-based; conditions: Escherichia coli, read-out: Minimum inhibitory concentration
From the text: as §2, §3

[6] = system: E. coli (B1962/17) isolate from equine urine, E. coli (3); assay: MIC, serial microdilution with INT; format: cell-based; conditions: Escherichia coli, read-out: Minimum inhibitory concentration
From the text: as §2, §3

[7] = system: Staphylococcus aureus (ATCC 29213); assay: MIC, serial microdilution with INT; format: cell-based; conditions: ATCC29213, S. aureus, read-out: Minimum inhibitory concentration
From the text: as §2, §3

[8] = system: Aspergillus fumigatus from a chicken; assay: MIC, serial microdilution with INT; format: cell-based; conditions: Aspergillus fumigatus, read-out: Minimum inhibitory concentration
From the text: as §2, §3

[9] = system: Escherichia coli (ATCC 25922), E. coli (1); assay: MIC, serial microdilution with INT; format: cell-based; conditions: Escherichia coli, ATCC25922, E. coli (1), read-out: Minimum inhibitory concentration
From the text: as §2, §3

in vitro [10] = assay: in vitro; remark: listed apart in the source
Description: as §1

[11] = system: S. aureus, E. coli (1), E. coli (2), E. coli (3), K. pneumoniae; assay: Mean MIC over the bacterial strains; format: cell-based; conditions: mean over the five bacterial strains of Table 3
From the text: as §2, §3

E. coli = system: E. coli; set-up: method as in earlier work; conditions: ref [70] Teffo et al.; cited from earlier work
S. aureus = system: S. aureus; set-up: method as in earlier work; conditions: ref [70] Teffo et al.; cited from earlier work
Caco2 cells = assay: in vitro; conditions: Caco2
Description: as §1

SMILES	MIC [3] [µg/mL]	MIC ([4]; 48 h, 48 h) [µg/mL]	MIC ([4]; 72 h, 72 h) [µg/mL]	MIC [5] [µg/mL]	MIC [6] [µg/mL]	MIC [7] [µg/mL]	MIC ([8]; 48 h) [µg/mL]	MIC ([8]; 72 h) [µg/mL]	MIC ([8]; 120 h) [µg/mL]	MIC [9] [µg/mL]	MIC [11] [µg/mL]	further results
COc1ccc(C2CC(=O)c3c(OC)cc(OC)cc3O2)cc1 (racemic) [Compound 2, (±)-4′,5,7-trimethoxy flavanone]	125 (≈ 398 µM)	16 (≈ 50.9 µM)	125 (≈ 398 µM)	31 (≈ 98.6 µM)	31 (≈ 98.6 µM)	31 (≈ 98.6 µM)	16 (≈ 50.9 µM)	125 (≈ 398 µM)	> 2500	31 (≈ 98.6 µM)	50 ± 40 (≈ 159 µM)	CC50 (in vitro [1]): > 200 µg/mL; MIC [2]: 70 ± 60 µg/mL (≈ 223 µM); Mean MIC [2]: 70 µg/mL; CC50 (in vitro [10]): 200 µg/mL (≈ 636 µM); Mean MIC [11]: 50 µg/mL
COc1ccc(-c2oc3cc(OC)cc(O)c3c(=O)c2OC)cc1 [Compound 3, 5-hydroxy-3,7,4′-trimethoxyflavone]	125 (≈ 381 µM)	> 250	> 250	250 (≈ 761 µM)	250 (≈ 761 µM)	16 (≈ 48.7 µM)	31 (≈ 94.4 µM)	250 (≈ 761 µM)	> 2500	63 (≈ 192 µM)	140 (≈ 426 µM)	MIC / antibacterial activity (E. coli): no activity was recorded; MIC / antibacterial activity (S. aureus): no activity was recorded; Selectivity index (LC50/MIC) (Caco2 cells; A. fumigatus 48 h): 5.129; Selectivity index (LC50/MIC) (Caco2 cells; E. coli (1)): 2.52; Selectivity index (LC50/MIC) (Caco2 cells; E. coli (2)): 0.636; Selectivity index (LC50/MIC) (Caco2 cells; E. coli (3)): 0.636; Selectivity index (LC50/MIC) (Caco2 cells; K. pneumoniae): 1.272; Selectivity index (LC50/MIC) (Caco2 cells; S. aureus): 9.938

Reference: publication PMC7376718, “Flavonoids isolated from the South African weed Chromolaena odorata (Asteraceae) have pharmacological activity against uropathogens” (BMC Complementary Medicine and Therapies, 2020)
